Like-named read-outs stand apart in the source and are kept apart here.
Assays:
[1] = system: human epithelial cells and rat arterial smooth muscle cells; assay: Mortality of human epithelial cells and of rat arterial smooth muscle cells (antioxidant effect, model of oxygen toxicity); format: cell-based; conditions: for Reduction in percentages: cell mortality: in culture medium: (-)hydroxycitrate 0.1 mM, silicon 0.036 mM, magnesium 0.1 mM; for protective effect on cell mortality: result in words
Experimental: (§1) 1) Study of the Mortality of Human Epithelial Cells and of Rat Arterial Smooth Muscle Cells.
The antioxidant effects of (-)hydroxycitrate and of different minerals were tested according to the protocol described by Michiels et al: "A new experimental model to study oxygen toxicity", Arch. int. Physiol. Biochem. 94 (5), S13-S18, 1986, using rat hepatocytes, as well as human epithelial cells and rat arterial smooth muscle cells.
(§2) The various products were respectively tested at the following concentrations: […]

[2] = system: rat arterial smooth muscle cells; assay: Proliferation of arterial smooth muscle cells; format: cell-based; conditions: for Reduction in percentages: proliferation of cells: in culture medium: (-)hydroxycitrate 0.1 mM, silicon 0.036 mM, magnesium 0.1 mM
Experimental: as §1
(§3) The inhibitory effects of these compounds on the proliferation of arterial smooth muscle and on the accumulation of intracellular lipids was also tested using the method described by Shrivastava et al. in Meth. Find. Exp. Clin. Pharmacol. 15 (6), pages 345-350, 1993.
as §2

[3] = system: rat arterial smooth muscle cells; assay: Accumulation of intracellular lipids in arterial smooth muscle cells; format: cell-based; conditions: for Reduction in percentages: accumulation of lipids: in culture medium: (-)hydroxycitrate 0.1 mM, silicon 0.036 mM, magnesium 0.1 mM
Experimental: as §1, §3, §2

hypertensive rat = assay: Anti-hypertensive activity in the hypertensive rat; format: in vivo; conditions: 500 mg/kg/day oral, one week, vs untreated controls
Experimental: 4) Study of Anti-hypertensive Activity in the Hypertensive Rat
Magnesium (-)hydroxycitrate was tested on 12 hypertensive rats. A batch of 12 other hypertensive rats was used as a control batch. An average reduction in arterial pressure of 17%±3% with respect to the controls (untreated) was noted after one week of treatment at a rate of 500 mg per kilogram per day by oral route.

in vivo = conditions: rat
Text: The toxicity of magnesium (-)hydroxycitrate is greater than 2 g/kg by intraperitoneal route or than 7 g/kg per os in the rat. That of metals, in particular in the form of salts or mineral oxides (frequently administered as trace elements) is well known.

[4] = system: wall of the aorta, hypercholesterolemic rabbits; assay: Lipidic deposits on the wall of the aorta in hypercholesterolemic rabbits; format: in vivo, rabbit; conditions: 750 mg/kg oral
Experimental: (§4) 2) Study of the Effect in vivo on the Cholesterol Level and on Lipidic Deposits in Hypercholesterolemic Rabbits.
(§5) Two batches of 20 male rabbits (Elevage scientifique des Dombes: 2.5-3 kg) received a cholesterol-rich food (1%) for a period of 8 weeks. The first batch were not treated and therefore served as a control while the second batch received 750 mg/kg of magnesium (-)hydroxycitrate by oral route.

[5] = system: hypercholesterolemic rabbits; assay: Effect in vivo on the cholesterol level in hypercholesterolemic rabbits; parameters: species or system rabbit; conditions: 750 mg/kg oral
Experimental: as §4, §5

[6] = system: hypercholesterolemic rabbit; format: in vivo
Experimental: 3) Study of Antiatherosclerotic Effects in the Hypercholesterolemic Rabbit.
Two batches of 15 male rabbits (Elevage scientifique des Dombes: 2.5-3 kg) received a cholesterol-rich food: 0.2% for the period D+8 to D+37, then 1% until D+69, when the animals are sacrificed.
The first batch was not treated and therefore served as a control while the second batch received 500 mg/kg of magnesium (-)hydroxycitrate by oral route.

[7] = literature, Majeed et al. 1994; in words; cited from earlier work
[8] = result in words, with respect to (-)hydroxycitrate or magnesium
[9] = 500 mg/kg/day oral, 62 days, vs controls

Silicon
Reduction in percentages: cell mortality [1]: 28 (±7) % | Reduction in percentages: proliferation of cells [2]: 28 (±6) % | Reduction in percentages: accumulation of lipids [3]: 32 (±5) %

O=C(O)C[C@@](O)(C(=O)O)[C@H](O)C(=O)O [Magnesium (-)hydroxycitrate, magnesium (-)hydroxycitrate]
average reduction in arterial pressure (hypertensive rat): 17%±3% | LD50 (in vivo; ip, intraperitoneal, read-out: toxicity, intraperitoneal route): > 2000 mg/kg | LD50 (in vivo; po, per os, read-out: toxicity, per os): > 7000 mg/kg | protective effect on cell mortality [1]: more protective effect | Reduction in percentages: proliferation of cells [2]: 48 (±8) % | effect on cell proliferation [2, 8]: very significant increase in the effects | number of lipidic deposits, aortic arch, week 4 ([4]; 4 weeks): 3.5 | number of lipidic deposits, thoracic arch, week 4 ([4]; 4 weeks): 0.0 | number of lipidic deposits, aortic arch, week 8 ([4]; 8 weeks): 1.5 | number of lipidic deposits, thoracic arch, week 8 ([4]; 8 weeks): 0.0 | number of lipidic deposits, in words ([4]; after 4 weeks and after 8 weeks): reduction in the number of lipidic deposits | number of lipidic deposits, total ([4]; sum of aortic and thoracic arch, weeks 4 and 8): 5.0 | lipidic deposits, total, Variation % ([4]; vs controls): -80.4% | Reduction in percentages: accumulation of lipids [3]: 81 (±13) % | effect on accumulation of lipids [3, 8]: very significant increase in the effects | HDL's, variation ([5]; 4 weeks, vs controls): +8.5% | LDL's, variation ([5]; 4 weeks, vs controls): -22.4% | Total cholesterol, variation ([5]; 4 weeks, vs controls): -19.5% | Total cholesterol/HDL ratio, variation ([5]; 4 weeks, vs controls): -28.2% | HDL's, in words ([5]; after 4 weeks): increase in HDL's | LDL's, in words ([5]; after 4 weeks): reduction in LDL's | HDL's ([5]; after 4 weeks of treatment): 0.246 g/L | LDL's ([5]; after 4 weeks of treatment): 4.00 g/L | Total cholesterol ([5]; after 4 weeks of treatment): 4.47 g/L | Total cholesterol/HDL ratio ([5]; after 4 weeks of treatment): 19.22 | Reduction in weight of spleen ([6]; 500 mg/kg/day oral, 62 days): -20.3% | Reduction in weight of surrenal glands ([6]; 500 mg/kg/day oral, 62 days): -21.6% | Reduction in lipidic deposits on the aortic vascular wall ([6]; 500 mg/kg/day oral, 62 days, vs control batch): 46.3% | Reduction in the total cholesterol level [6, 9]: -13.75% | Reduction in the total cholesterol/HDL ratio [6, 9]: -25.72% | increase in HDL levels [6, 9]: +12.5% | Reduction in LDL's ([6]; 500 mg/kg/day oral, 62 days, vs controls, given without sign): 16.36% | weight of heart, liver ([6]; 500 mg/kg/day oral, 62 days, in words): Reduction in weight of heart, liver | overall effect on the hypercholesterolemic rabbit ([6]; non-cytotoxic doses, in words): hypocholesterolemia and anti-atherosclerotic effect

O=C(O)CC(O)(C(=O)O)C(O)C(=O)O (single isomer, unassigned; (-)) [(-)hydroxycitrate, (-)hydroxycitric acid]
protective effect on cell mortality [1]: no protective effect on cell mortality | Reduction in percentages: proliferation of cells [2]: 6 (±4) % | body weight [7]: reduces body weight | Reduction in percentages: accumulation of lipids [3]: 16 (±3) %

Magnesium
Reduction in percentages: cell mortality [1]: 6 (±3) % | protective effect on cell mortality [1]: reduces this mortality very slightly | Reduction in percentages: proliferation of cells [2]: 2 (±2) % | Reduction in percentages: accumulation of lipids [3]: 20 (±9) %

Reference: patent US6221901A, “Magnesium (-)hydroxycitrate, method of preparation, applications, and compositions in particular pharmaceutical containing same” (priority 1996, dated 2001)
